From article PMC12605528, “A bifunctional peptide–selenium nanocomposite for lysosomal degradation of PD-L1 and enhanced cancer immunotherapy” (Frontiers in Immunology, 2025) come the findings set out here.

For assay [1], the target named is T1, HSC70 (Homo sapiens, UniProt P11142). The assay is described as follows: Isothermal titration calorimetry (ITC), binding to HSC70. The settings on record: 25 °C, PBS pH 7.4, peptide 500 μM in syringe, protein 2.5 μM in cell, 20 injections of 2 μL. How it is done: (§1) Experiments were conducted at 25 °C on a MicroCal iTC200 isothermal titration calorimeter (GE Healthcare) in PBS buffer (pH 7.4). The titration syringe was loaded with peptide a or scrambled peptide prepared at 500 μM, while the sample chamber contained PD-L1 or HSC70 protein at 2.5 μM. The titration consisted of 20 successive injections of 2 μL each, with an equilibration interval of 120 seconds between injections. The average baseline value was calculated from data points obtained under saturation conditions. Following baseline correction, binding constants were determined using the fitting models provided in MicroCal Origin software.
A general note: In ITC the heat of successive injections is recorded.
Target sequence in this assay (P11142 whole entry, species assumed): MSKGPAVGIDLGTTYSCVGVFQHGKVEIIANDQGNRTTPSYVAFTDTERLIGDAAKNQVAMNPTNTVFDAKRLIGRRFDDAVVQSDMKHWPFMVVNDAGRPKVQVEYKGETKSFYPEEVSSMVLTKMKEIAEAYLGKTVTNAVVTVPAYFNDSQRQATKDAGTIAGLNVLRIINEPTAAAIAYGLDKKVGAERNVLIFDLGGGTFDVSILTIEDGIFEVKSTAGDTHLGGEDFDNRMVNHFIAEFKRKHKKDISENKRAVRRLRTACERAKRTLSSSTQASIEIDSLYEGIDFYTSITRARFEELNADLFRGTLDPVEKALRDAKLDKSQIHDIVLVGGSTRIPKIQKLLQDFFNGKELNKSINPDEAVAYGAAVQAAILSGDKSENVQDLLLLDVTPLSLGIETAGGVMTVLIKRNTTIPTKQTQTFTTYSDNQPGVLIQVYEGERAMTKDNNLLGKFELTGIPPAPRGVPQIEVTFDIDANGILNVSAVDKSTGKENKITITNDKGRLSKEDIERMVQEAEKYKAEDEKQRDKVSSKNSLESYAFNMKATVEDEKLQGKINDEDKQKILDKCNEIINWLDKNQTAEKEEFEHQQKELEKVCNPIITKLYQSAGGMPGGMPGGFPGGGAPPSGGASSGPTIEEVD

The target in assay [2] is T2, PD-L1 (Homo sapiens, UniProt Q9NZQ7). The assay is described as follows: Isothermal titration calorimetry (ITC), binding to PD-L1. The settings on record: 25 °C, PBS pH 7.4, peptide 500 μM in syringe, protein 2.5 μM in cell, 20 injections of 2 μL. How it is done:
as §1
Target sequence in this assay (Q9NZQ7 19-290, species assumed): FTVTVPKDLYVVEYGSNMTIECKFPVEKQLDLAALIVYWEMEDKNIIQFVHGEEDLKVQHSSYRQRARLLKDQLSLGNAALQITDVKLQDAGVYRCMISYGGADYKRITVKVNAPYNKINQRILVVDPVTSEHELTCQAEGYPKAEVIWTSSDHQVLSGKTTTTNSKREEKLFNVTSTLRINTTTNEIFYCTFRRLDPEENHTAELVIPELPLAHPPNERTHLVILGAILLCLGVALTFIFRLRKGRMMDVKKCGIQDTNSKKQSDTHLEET

The target in assay [3] is T1, HSC70. In words: ITC; MicroCal iTC200, 25 °C, PBS pH 7.4; peptide at 500 μM in the syringe, PD-L1 or HSC70 at 2.5 μM in the sample chamber; 20 injections of 2 μL.
Target sequence in this assay (P11142 whole entry): as the sequence (P11142 whole entry, species assumed) above
Assay [4] concerns the target T2, PD-L1. The assay is described as above.
Target sequence in this assay (Q9NZQ7 19-290): as the sequence (Q9NZQ7 19-290, species assumed) above

Regarding “fhyqrdtpksyn-PEG3-QREFKC [mutant peptide with scrambled sequences]”, at HSC70 [1], the “Kd, binding to HSC70” value was “no detectable binding”. Further, on PD-L1 [2], the “Kd, binding to PD-L1” value is reported as “no detectable binding”.
In the case of “bifunctional peptide a (CKFERQ-PEG3-nyskptdrqyhf)”, the dissociation constant (Kd) was found to be 1280 nM with HSC70 [3] and 410 nM in the assay with PD-L1 [4].

The term Kd denotes the concentration at which binding is half-saturated. A lower Kd goes with a tighter complex.
